Key:
Assay type in all cases: functional
HL-60(TB) = experiment: Cytotoxicity against human HL-60(TB) cells assessed as cellular growth at 10 uM by SRB assay
CAKI-1 = experiment: Cytotoxicity against human Caki1 cells assessed as cellular growth at 10 uM by SRB assay
IGROV-1 = experiment: Cytotoxicity against human IGROV1 cells assessed as cellular growth at 10 uM by SRB assay
NCI-H23 = experiment: Cytotoxicity against human NCI-H23 cells assessed as cellular growth at 10 uM by SRB assay
UO-31 = experiment: Cytotoxicity against human UO31 cells assessed as cellular growth at 10 uM by SRB assay
SK-MEL-28 = experiment: Cytotoxicity against human SK-MEL-28 cells assessed as cellular growth at 10 uM by SRB assay
MDA-MB-435 = experiment: Cytotoxicity against human MDA-MB-435 cells assessed as cellular growth at 10 uM by SRB assay
A498 = experiment: Cytotoxicity against human A498 cells assessed as cellular growth at 10 uM by SRB assay
NCI-H226 = experiment: Cytotoxicity against human NCI-H226 cells assessed as cellular growth at 10 uM by SRB assay
RPMI-8226 = experiment: Cytotoxicity against human RPMI8226 cells assessed as cellular growth at 10 uM by SRB assay
OVCAR-4 = experiment: Cytotoxicity against human OVCAR4 cells assessed as cellular growth at 10 uM by SRB assay
KM12 = experiment: Cytotoxicity against human KM12 cells assessed as cellular growth at 10 uM by SRB assay
NCI-H322M = experiment: Cytotoxicity against human NCI-H322M cells assessed as cellular growth at 10 uM by SRB assay
[1] = Cytotoxicity against human NCI-ADR-RES cells assessed as cellular growth at 10 uM by SRB assay
OVCAR-8 = experiment: Cytotoxicity against human OVCAR8 cells assessed as cellular growth at 10 uM by SRB assay
SNB-75 = experiment: Cytotoxicity against human SNB75 cells assessed as cellular growth at 10 uM by SRB assay
HCC 2998 = experiment: Cytotoxicity against human HCC2998 cells assessed as cellular growth at 10 uM by SRB assay
SF-295 = experiment: Cytotoxicity against human SF295 cells assessed as cellular growth at 10 uM by SRB assay
TK-10 = experiment: Cytotoxicity against human TK10 cells assessed as cellular growth at 10 uM by SRB assay
HCT-15 = experiment: Cytotoxicity against human HCT15 cells assessed as cellular growth at 10 uM by SRB assay
RXF 393 = experiment: Cytotoxicity against human RXF393 cells assessed as cellular growth at 10 uM by SRB assay
PC-3 = experiment: Cytotoxicity against human PC3 cells assessed as cellular growth at 10 uM by SRB assay
SK-OV-3 = experiment: Cytotoxicity against human SKOV3 cells assessed as cellular growth at 10 uM by SRB assay
M14 = experiment: Cytotoxicity against human M14 cells assessed as cellular growth at 10 uM by SRB assay
LOX IMVI = experiment: Cytotoxicity against human LOXIMVI cells assessed as cellular growth at 10 uM by SRB assay
NCI-H522 = experiment: Cytotoxicity against human NCI-H522 cells assessed as cellular growth at 10 uM by SRB assay
CCRF-CEM = experiment: Cytotoxicity against human CCRF-CEM cells assessed as cellular growth at 10 uM by SRB assay
HOP-92 = experiment: Cytotoxicity against human HOP92 cells assessed as cellular growth at 10 uM by SRB assay
SK-MEL-5 = experiment: Cytotoxicity against human SK-MEL-5 cells assessed as cellular growth at 10 uM by SRB assay
COLO 205 = experiment: Cytotoxicity against human COLO205 cells assessed as cellular growth at 10 uM by SRB assay
K562 = experiment: Cytotoxicity against human K562 cells assessed as cellular growth at 10 uM by SRB assay
EKVX = experiment: Cytotoxicity against human EKVX cells assessed as cellular growth at 10 uM by SRB assay
OVCAR-3 = experiment: Cytotoxicity against human OVCAR3 cells assessed as cellular growth at 10 uM by SRB assay
SK-MEL-2 = experiment: Cytotoxicity against human SK-MEL-2 cells assessed as cellular growth at 10 uM by SRB assay
BT-549 = experiment: Cytotoxicity against human BT549 cells assessed as cellular growth at 10 uM by SRB assay
A549 = experiment: Cytotoxicity against human A549 cells assessed as cellular growth at 10 uM by SRB assay
MOLT-4 = experiment: Cytotoxicity against human MOLT4 cells assessed as cellular growth at 10 uM by SRB assay
ACHN = experiment: Cytotoxicity against human ACHN cells assessed as cellular growth at 10 uM by SRB assay
SF-539 = experiment: Cytotoxicity against human SF539 cells assessed as cellular growth at 10 uM by SRB assay
HCT-116 = experiment: Cytotoxicity against human HCT116 cells assessed as cellular growth at 10 uM by SRB assay
SN12C = experiment: Cytotoxicity against human SN12C cells assessed as cellular growth at 10 uM by SRB assay
U-251 = experiment: Cytotoxicity against human U251 cells assessed as cellular growth at 10 uM by SRB assay
MCF7 = experiment: Cytotoxicity against human MCF7 cells assessed as cellular growth at 10 uM by SRB assay
SNB-19 = experiment: Cytotoxicity against human SNB19 cells assessed as cellular growth at 10 uM by SRB assay
NCI-H460 = experiment: Cytotoxicity against human NCI-H460 cells assessed as cellular growth at 10 uM by SRB assay
SW-620 = experiment: Cytotoxicity against human SW620 cells assessed as cellular growth at 10 uM by SRB assay
OVCAR-5 = experiment: Cytotoxicity against human OVCAR5 cells assessed as cellular growth at 10 uM by SRB assay
HT-29 = experiment: Cytotoxicity against human HT-29 cells assessed as cellular growth at 10 uM by SRB assay
HOP-62 = experiment: Cytotoxicity against human HOP62 cells assessed as cellular growth at 10 uM by SRB assay
DU-145 = experiment: Cytotoxicity against human DU145 cells assessed as cellular growth at 10 uM by SRB assay
Hs-578T = experiment: Cytotoxicity against human Hs578T cells assessed as cellular growth at 10 uM by SRB assay
Malme-3M = experiment: Cytotoxicity against human MALME-3M cells assessed as cellular growth at 10 uM by SRB assay
MDA-MB-231 = experiment: Cytotoxicity against human MDA-MB-231 cells assessed as cellular growth at 10 uM by SRB assay
T47D = experiment: Cytotoxicity against human T47D cells assessed as cellular growth at 10 uM by SRB assay
SF-268 = experiment: Cytotoxicity against human SF268 cells assessed as cellular growth at 10 uM by SRB assay
786-0 = experiment: Cytotoxicity against human 786-0 cells assessed as cellular growth at 10 uM by SRB assay
UACC-257 = experiment: Cytotoxicity against human UACC257 cells assessed as cellular growth at 10 uM by SRB assay
UACC-62 = experiment: Cytotoxicity against human UACC62 cells assessed as cellular growth at 10 uM by SRB assay
MDA-MB-468 = experiment: Cytotoxicity against human MDA-MB-468 cells assessed as cellular growth at 10 uM by SRB assay

SMILES: O=C1N=C(c2ccccc2)S/C1=C\c1ccc2c(c1)OCO2
- Activity (HL-60(TB)): 111.12%
- Activity (CAKI-1): 101.66%
- Activity (IGROV-1): 101.91%
- Activity (NCI-H23): 114.7%
- Activity (UO-31): 86.92%
- Activity (SK-MEL-28): 106.02%
- Activity (MDA-MB-435): 103.92%
- Activity (A498): 80.95%
- Activity (NCI-H226): 95.12%
- Activity (RPMI-8226): 92.67%
- Activity (OVCAR-4): 100.96%
- Activity (KM12): 92.95%
- Activity (NCI-H322M): 108.21%
- Activity [1]: 107.06%
- Activity (OVCAR-8): 96.76%
- Activity (SNB-75): 95.66%
- Activity (HCC 2998): 118.49%
- Activity (SF-295): 97.51%
- Activity (TK-10): 110.48%
- Activity (HCT-15): 101.73%
- Activity (RXF 393): 115.74%
- Activity (PC-3): 85.65%
- Activity (SK-OV-3): 98.47%
- Activity (M14): 111.64%
- Activity (LOX IMVI): 102.92%
- Activity (NCI-H522): 105.96%
- Activity (CCRF-CEM): 90.34%
- Activity (HOP-92): 71.22%
- Activity (SK-MEL-5): 96.34%
- Activity (COLO 205): 101.56%
- Activity (K562): 73.5%
- Activity (EKVX): 98.04%
- Activity (OVCAR-3): 95.8%
- Activity (SK-MEL-2): 110.33%
- Activity (BT-549): 108.62%
- Activity (A549): 95.78%
- Activity (MOLT-4): 109.24%
- Activity (ACHN): 99.6%
- Activity (SF-539): 95.81%
- Activity (HCT-116): 104.4%
- Activity (SN12C): 94.15%
- Activity (U-251): 90.93%
- Activity (MCF7): 101.6%
- Activity (SNB-19): 98.6%
- Activity (NCI-H460): 96.54%
- Activity (SW-620): 89.42%
- Activity (OVCAR-5): 92.58%
- Activity (HT-29): 101.51%
- Activity (HOP-62): 94.43%
- Activity (DU-145): 102.97%
- Activity (Hs-578T): 94.3%
- Activity (Malme-3M): 94.49%
- Activity (MDA-MB-231): 104.95%
- Activity (T47D): 94.58%
- Activity (SF-268): 95.75%
- Activity (786-0): 100.46%
- Activity (UACC-257): 92.39%
- Activity (UACC-62): 91.01%
- Activity (MDA-MB-468): 98.71%
